Several values for one entry are separate records, joined by “and”; a condition that tells them apart may be missing. Equal entries are not always repeated.
Columns and labels:
SfurOBP1 = SfurOBP1 (Sogatella furcifera, UniProt V5T8N5); assay: Binding of 1-NPN to SfurOBP1 (fluorescence titration); details: for Fluorescence intensity: OBP1, triplicate columns
Experimental: (§1) Fluorescence competitive binding assays were performed on Tecan Spark 10M (Tecan Group Ltd., Männedorf, Switzerland) with the F96 Black ELIAS Plate (Sangon) ([Khuhro et al., 2017]; [Liu et al., 2017]). The solutions were excited at 337 nm and emission spectra were recorded between 390 and 490 nm. First, to test the binding constants of 1-NPN to the SfurOBPs, a 2.0 µM solution of protein in 50 mM Tris-HCl (pH = 7.4) was titrated with 1 mM 1-NPN to achieve virous concentrations. Next, the competitive binding of each odorant was measured using the 1-NPN as fluorescent reporter and odorant as competitor. The concentrations of protein and 1-NPN were both 2.0 µM, the odorant added after protein and 1-NPN added into the well of ELIAS Plate for 2 min. The final concentrations of each competitor were 2, 4, 6, 8, 10, 12, 14, 16, 18 and 20 µM. After 2 min of odorant added, the fluorescence intensity was measured and recorded. The volume of mixed solution in each well was maintained at 250 µL. Each interaction was performed in triplicates.
(§2) GraphPad Prism 7.0 software (GraphPad Software, Inc., La Jolla, CA, USA) was used to calculated and generated the binding constants (K1−NPN) of 1-NPN to SfurOBPs and relative Scatchard plots ([Ban et al., 2003]; [Li et al., 2016]). Dissociation constant (Ki) of each odorant to SfurOBP was computed from the corresponding IC50 value (the half maximal inhibitory concentration), using the following equation: Ki=[IC50]/(1 + [1-NPN]/K1−NPN), where [1-NPN] is the free concentration of 1-NPN and K1−NPN is the dissociation constant of the complex protein/1-NPN.

SfurOBP2 = SfurOBP2 (Sogatella furcifera, UniProt V5T759); assay: Binding of 1-NPN to SfurOBP2 (fluorescence titration); details: for Fluorescence intensity: OBP2, triplicate columns
Experimental: as §1, §2

SfurOBP3 = SfurOBP3 (Sogatella furcifera, UniProt V5T818); assay: Binding of 1-NPN to SfurOBP3 (fluorescence titration); details: for Fluorescence intensity: OBP3, triplicate columns
Experimental: as §1, §2

SfurOBP11 = SfurOBP11 (Sogatella furcifera, UniProt V5T6E3); assay: Binding of 1-NPN to SfurOBP11 (fluorescence titration); details: for Fluorescence intensity: OBP11, triplicate columns
Experimental: as §1, §2

Chain of SfurOBP3 (V5T818 entry or part of it): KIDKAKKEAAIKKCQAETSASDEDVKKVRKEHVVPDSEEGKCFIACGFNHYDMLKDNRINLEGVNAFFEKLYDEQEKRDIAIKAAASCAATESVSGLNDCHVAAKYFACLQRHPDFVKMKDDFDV
Chain of SfurOBP2 (V5T759 entry or part of it): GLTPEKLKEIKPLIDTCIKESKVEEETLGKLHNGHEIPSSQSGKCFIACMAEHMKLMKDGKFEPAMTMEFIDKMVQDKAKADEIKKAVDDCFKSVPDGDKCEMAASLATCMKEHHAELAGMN
Chain of SfurOBP1 (V5T8N5 entry or part of it): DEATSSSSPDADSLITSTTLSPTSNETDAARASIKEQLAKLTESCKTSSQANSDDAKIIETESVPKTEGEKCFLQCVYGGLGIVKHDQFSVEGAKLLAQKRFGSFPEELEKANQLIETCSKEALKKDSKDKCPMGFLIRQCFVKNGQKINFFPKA
Chain of SfurOBP11 (V5T6E3 entry or part of it): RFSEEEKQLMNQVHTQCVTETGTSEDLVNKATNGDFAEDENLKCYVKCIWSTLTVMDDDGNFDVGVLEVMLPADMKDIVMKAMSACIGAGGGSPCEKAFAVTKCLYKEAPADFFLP

SMILES: c1ccc(Nc2cccc3ccccc23)cc1 [1-NPN, N-phenyl-1-naphthylamine]
- Fluorescence intensity (SfurOBP1; 1-NPN 2 (unit not given)): 7934 and 7244 and 7558
- Fluorescence intensity (SfurOBP1; 1-NPN 4 (unit not given)): 14870 and 13520 and 13256
- Fluorescence intensity (SfurOBP1; 1-NPN 6 (unit not given)): 19450 and 20173 and 19826
- Fluorescence intensity (SfurOBP1; 1-NPN 8 (unit not given)): 25948 and 27851 and 26112
- Fluorescence intensity (SfurOBP1; 1-NPN 10 (unit not given)): 30874 and 31162 and 28910
- Fluorescence intensity (SfurOBP1; 1-NPN 12 (unit not given)): 33259 and 35914 and 35970
- Fluorescence intensity (SfurOBP1; 1-NPN 14 (unit not given)): 37528 and 37617 and 40532
- Fluorescence intensity (SfurOBP1; 1-NPN 16 (unit not given)): 43674 and 43309 and 43505
- Fluorescence intensity (SfurOBP1; 1-NPN 18 (unit not given)): 50472 and 51665 and 48009
- Fluorescence intensity (SfurOBP1; 1-NPN 20 (unit not given)): 53471 and 53438 and 53794
- Fluorescence intensity (SfurOBP1; 1-NPN 22 (unit not given)): 54404 and 53461 and 54332
- Fluorescence intensity (SfurOBP1; 1-NPN 24 (unit not given)): 55616 and 55933 and 55336
- Fluorescence intensity (SfurOBP1; 1-NPN 26 (unit not given)): 55005 and 58722 and 54776
- Fluorescence intensity (SfurOBP1; 1-NPN 28 (unit not given)): 60087 and 56565 and 53471
- Fluorescence intensity (SfurOBP1; 1-NPN 30 (unit not given)): 59000 and 55051 and 51066
- Kd (SfurOBP1; SfurOBP1, 2.0 µM protein, 50 mM Tris-HCl pH 7.4, read-out: dissociation constant of 1-NPN): 24.2 µM
- Fluorescence intensity (SfurOBP2; 1-NPN 2 (unit not given)): 23662 and 22289 and 22010
- Fluorescence intensity (SfurOBP2; 1-NPN 4 (unit not given)): 39603 and 44704 and 31870
- Fluorescence intensity (SfurOBP2; 1-NPN 6 (unit not given)): 50431 and 46158 and 47197
- Fluorescence intensity (SfurOBP2; 1-NPN 8 (unit not given)): 61337 and 63137 and 57001
- Fluorescence intensity (SfurOBP2; 1-NPN 10 (unit not given)): 59819 and 73730 and 69974
- Fluorescence intensity (SfurOBP2; 1-NPN 14 (unit not given)): 64863 and 65896 and 57584
- Fluorescence intensity (SfurOBP2; 1-NPN 16 (unit not given)): 70787 and 76872 and 65200
- Fluorescence intensity (SfurOBP2; 1-NPN 18 (unit not given)): 75833 and 70878 and 75400
- Fluorescence intensity (SfurOBP2; 1-NPN 20 (unit not given)): 67482 and 73624 and 78268
- Fluorescence intensity (SfurOBP2; 1-NPN 22 (unit not given)): 76334 and 74639 and 64277
- Kd (SfurOBP2; SfurOBP2, 2.0 µM protein, 50 mM Tris-HCl pH 7.4, read-out: dissociation constant of 1-NPN): 5.67 µM
- Fluorescence intensity (SfurOBP3; 1-NPN 2 (unit not given)): 61430 and 58985 and 59650
- Fluorescence intensity (SfurOBP3; 1-NPN 4 (unit not given)): 77503 and 80113 and 80262
- Fluorescence intensity (SfurOBP3; 1-NPN 6 (unit not given)): 85325 and 83919 and 82776
- Fluorescence intensity (SfurOBP3; 1-NPN 8 (unit not given)): 97386 and 97137 and 85039
- Fluorescence intensity (SfurOBP3; 1-NPN 10 (unit not given)): 98049 and 103605 and 94167
- Fluorescence intensity (SfurOBP3; 1-NPN 12 (unit not given)): 100936 and 110967 and 98958
- Fluorescence intensity (SfurOBP3; 1-NPN 14 (unit not given)): 99019 and 113580 and 103187
- Fluorescence intensity (SfurOBP3; 1-NPN 16 (unit not given)): 114929 and 113428 and 104178
- Fluorescence intensity (SfurOBP3; 1-NPN 18 (unit not given)): 121020 and 111471 and 116920
- Fluorescence intensity (SfurOBP3; 1-NPN 20 (unit not given)): 114200 and 113028 and 114937
- Fluorescence intensity (SfurOBP3; 1-NPN 22 (unit not given)): 115221 and 112203 and 110696
- Fluorescence intensity (SfurOBP3; 1-NPN 24 (unit not given)): 120756 and 110811 and 112155
- Fluorescence intensity (SfurOBP3; 1-NPN 26 (unit not given)): 117527 and 109823 and 115694
- Fluorescence intensity (SfurOBP3; 1-NPN 28 (unit not given)): 107913 and 111968 and 118918
- Fluorescence intensity (SfurOBP3; 1-NPN 30 (unit not given)): 110746 and 113690 and 116658
- Kd (SfurOBP3; SfurOBP3, 2.0 µM protein, 50 mM Tris-HCl pH 7.4, read-out: dissociation constant of 1-NPN): 2.42 µM
- Fluorescence intensity (SfurOBP11; 1-NPN 2 (unit not given)): 34926 and 31369 and 32128
- Fluorescence intensity (SfurOBP11; 1-NPN 4 (unit not given)): 46136 and 60649 and 53421
- Fluorescence intensity (SfurOBP11; 1-NPN 6 (unit not given)): 59058 and 63562 and 67479
- Fluorescence intensity (SfurOBP11; 1-NPN 8 (unit not given)): 73431 and 79398 and 77472
- Fluorescence intensity (SfurOBP11; 1-NPN 10 (unit not given)): 83685 and 83190 and 84209
- Fluorescence intensity (SfurOBP11; 1-NPN 12 (unit not given)): 87527 and 87829 and 87441
- Fluorescence intensity (SfurOBP11; 1-NPN 14 (unit not given)): 113208 and 119321 and 82397
- Fluorescence intensity (SfurOBP11; 1-NPN 16 (unit not given)): 121541 and 129453 and 101542
- Fluorescence intensity (SfurOBP11; 1-NPN 18 (unit not given)): 129684 and 132053 and 101150
- Fluorescence intensity (SfurOBP11; 1-NPN 20 (unit not given)): 142842 and 126669 and 108121
- Fluorescence intensity (SfurOBP11; 1-NPN 22 (unit not given)): 118001 and 129399 and 126785
- Fluorescence intensity (SfurOBP11; 1-NPN 24 (unit not given)): 123359 and 122043 and 121686
- Kd (SfurOBP11; SfurOBP11, 2.0 µM protein, 50 mM Tris-HCl pH 7.4, read-out: dissociation constant of 1-NPN): 10.4 µM

— article PMC6409085, “Three odorant-binding proteins are involved in the behavioral response of Sogatella furcifera to rice plant volatiles” (PeerJ, 2019)
